Experimental data taken from ChEMBL document CHEMBL1681694, “Solution-phase parallel synthesis and screening of anti-tumor activities from fenbufen and ethacrynic acid libraries” (Bioorg Med Chem Lett, 2011).

Assays:
Format in all cases: functional, cell-based
[1] = tested on: A549; assay: Cytotoxicity against human A549 cells after 2 days by MTT assay; settings: A549, 48 h
[2] = Cytotoxicity against mouse TRAMP-C1 cells after 2 days by MTT assay; settings: TRAMP-C1, 48 h
[3] = tested on: MCF7; assay: Cytotoxicity against human MCF7 cells after 2 days by MTT assay; settings: MCF7, 48 h
[4] = Cytotoxicity against mouse C26 cells after 2 days by MTT assay; settings: C26, 48 h

Cc1ccc(C)c(OCCCC(C)(C)C(=O)NCCCCNC(=O)CCC(=O)c2ccc(-c3ccccc3)cc2)c1 showed an IC50 [1] of 9 µM, an IC50 [2] of 40 µM and an IC50 [3] of 2 µM. For the same molecule, the IC50 [4] was 10 µM.

Molecule NCCCCNC(=O)CCC(=O)c1ccc(-c2ccccc2)cc1 [FENBUFEN BUTANAMINE] has an IC50 [1] of 100 µM and an IC50 [3] of 87 µM.

Work on O=C(O)CCC(=O)c1ccc(-c2ccccc2)cc1 [FENBUFEN] yielded an IC50 [1] greater than 100 µM, an IC50 [2] greater than 100 µM and an IC50 [3] greater than 50 µM. The IC50 [4] was greater than 100 µM.

In the case of CCCCC(CC)C(=O)NCCCCNC(=O)CCC(=O)c1ccc(-c2ccccc2)cc1 (stereo not given), the IC50 [1] is reported as 17 µM, the IC50 [2] is reported as 18 µM and the IC50 [3] is reported as 1 µM. For the same molecule, the IC50 [4] was 13 µM.

C=C(CC)C(=O)c1ccc(OCC(=O)NCCCCN)c(Cl)c1Cl showed an IC50 [1] of 18 µM and an IC50 [3] of 8 µM.

In the case of C=C(CC)C(=O)c1ccc(OCC(=O)NCCCCNC(=O)CCC(=O)c2ccc(-c3ccccc3)cc2)c(Cl)c1Cl, the IC50 [1] is reported as 19 µM, the IC50 [2] is reported as 80 µM and the IC50 [3] is reported as 5 µM. The IC50 [4] was 35 µM.
